The text below walks through data of patent publication US20130225548A1, “Pyridine Derivative and Medicinal Agent” (NIPPON SHINYAKU CO., LTD., priority 2010, published 2013).

Structures can show the parent of a compound that is named as a salt. A value given as a limit tells only on which side of the number the result lay.

The target of the assay is T1, Syk tyrosine kinase (Homo sapiens, UniProt P43405).
T1 construct: purchased Carna Biosciences, Inc
Description: Test for Syk tyrosine kinase inhibitory activity (ELISA). The format is biochemical. Particulars: Syk tyrosine kinase (Carna Biosciences), 25 μM ATP in substrate solution, 30° C. 1 hour, n=2; read-out: Evaluation (IC50, concentration inhibiting the tyrosine kinase activity at 50%). As for the experimental part:
Test Example 1: Test for Syk Tyrosine Kinase Inhibitory Activity
1. Preparation of Test Substance
A test substance was prepared at 10 mM in dimethyl sulfoxide (DMSO), and further diluted with DMSO to concentrations of 1000, 300, 100, 30, 10, 3, 1, 0.3, 0.1, 0.03, and 0.01 μM. The resulting solutions were further diluted to 20-fold with an assay buffer, whereby test substance solutions were prepared. As a negative control, a solution obtained by diluting DMSO to 20-fold with an assay buffer was used. As the assay buffer, a buffer containing 15 mM Tris-HCl (pH 7.5), 0.01 (v/v) % Tween-20, and 1 mM dithiothreitol was used.
2. Measurement of Syk Tyrosine Kinase Inhibitory Activity
The activity was measured using the ELISA method. Each of the test substance solutions was added to a streptavidine-coated 96-well place (DELFIA Strip Plate 8×12 wells, PerkinElmer Co., Ltd,) at 10 μL per well (n=2), and a substrate solution (625 nM biotinylated peptide substrate, 25 μM ATP, 25 mM MgCl2, 15 mM Tris-HCl (pH 7.5), 0.01 (v/v) % Tween-20, 1 mM dithiothreitol) was added to the plate at 20 μL per well, and the resulting mixture was stirred. Finally, Syk tyrosine kinase (Carna Biosciences, Inc.) (previously diluted to 0.025 nM with the assay buffer) was added to the plate at 20 μL per well, and the resulting mixture was stirred. A reaction was allowed to proceed at 30° C. for 1 hour. After the plate was washed 4 times with a washing buffer (50 mM Tris-HCl (pH 7.5, 150 mM NaCl, 0.02 (v/v) % Tween-20), a blocking buffer (0.1% bovine serum albumin, 50 mM Tris-HCl (pH 7.5), 150 mM NaCl, 0.02 (v/v) % Tween-20) was added to the plate at 150 μL per well, and blocking was performed at 30° C. for 30 minutes. Then, the blocking buffer was removed, and a horseradish peroxidase-labeled anti-phosphorylated tyrosine antibody (BD Biosciences, Inc.) (previously diluted to 10000-fold with the blocking buffer) was added to the plate at 100 μL per well, and the plate was incubated at 30° C. for 30 minutes. After the plate was washed 4 times with the washing buffer, a 3,3′,5,5′-tetramethylbenzidine solution (Sigma-Aldrich Co., Ltd.) was added to the plate at 100 μL per well to develop the color for 10 minutes. The reaction was stopped by adding 0.1 M sulfuric acid at 100 μL per well. The absorbance at 450 nm was measured using a microplate reader (Multiskan F C, Thermo Fisher Scientific K,K.).
3. Analysis of Measurement Results
A non-linear regression analysis was performed for the measured absorbance using the SAS system (SAS institute. Inc.), and a concentration of each of the test substances: inhibiting the tyrosine kinase activity at 50% (IC50 ) was calculated. A case where IC50 is […] was evaluated as ***, a case where IC50 is 5 nM or more and less than 50 nM was evaluated as **, and a case where IC50 is 50 nM or more and less than 500 nM was evaluated as *, which are shown in the column of evaluation item.
On the technique in general: ELISA stands for enzyme-linked immunosorbent assay.

With “2-({4-cyclopropyl-6-[2-ethyl-1-(trans-4-hydroxycyclohexyl)-1H-benzimidazol-6-yl]pyridin-2-yl}amino)pyridine-4-carbonitrile hydrochloride [Example 157]”, the IC50 was less than 5 nM. The same measure for “2-({6-[1-(4-cyanopiperidin-1-yl)isoquinolin-7-yl]-4-cyclopropylpyridin-2-yl}amino)pyridine-4-carbonitrile hydrochloride [Example 170]”: 5 to 50 nM; for `CC(=O)O[C@@H]1CCC[C@H]1n1cnc2ccc(-c3cc(C4CC4)cc(Nc4cc(C#N)ccn4)n3)cc21` (relative stereo) [Example 141, trans-2-(6-{6-[(4-cyanopyridin-2-yl)amino]-4-cyclopropylpyridin-2-yl}-1H-benzimidazol-1-yl)cyclopentyl acetate hydrochloride]: 50 to 500 nM. The result for `N#Cc1ccnc(Nc2cc(C3CC3)cc(-c3ccc4ncn([C@@H]5CCCC[C@H]5O)c4c3)n2)c1` (relative stereo) [Example 146, 2-[(4-cyclopropyl-6-{1[trans-2-hydroxycyclohexyl]-1H-benzimidazol-6-yl}pyridin-2-yl)amino]pyridine-4-carbonitrile hydrochloride] reads 5 to 50 nM; that for `N#Cc1ccnc(Nc2cc(C3CC3)cc(-c3ccc4c(c3)ncn4[C@@H]3CCCC[C@H]3O)n2)c1` (relative stereo) [Example 152, 2-[(4-cyclopropyl-6-{1-[trans-2-hydroxycyclohexyl]-1H-benzimidazol-5-yl}pyridin-2-yl)amino]pyridine-4-carbonitrile hydrochloride], 50 to 500 nM; that for `N#Cc1ccnc(Nc2cc(C3CC3)cc(-c3ccc(N4CCOCC4)nc3)n2)c1` [Example 1, 2-{[4-cyclopropyl-6′-(morpholin-4-yl)-2,3′-bipyridin-6-yl]amino}pyridine-4-carbonitrile hydrochloride], 5 to 50 nM. Consider `N#Cc1ccnc(Nc2cc(C3CC3)cc(-c3ccc(NCCO)nc3)n2)c1` [Example 2, 2-({4-cyclopropyl-6′-[(2-hydroxyethyl)amino]-2,3′-bypyridin-6-yl}amino)pyridine-4-carbonitrile hydrochloride], for which the IC50 is 5 to 50 nM. The result for `N#Cc1ccnc(Nc2cc(C3CC3)cc(-c3ccc(N4CCS(=O)(=O)CC4)nc3)n2)c1` [Example 3, 2-{[4-cyclopropyl-6′-(1,1-dioxidethiomorpholin-4-yl)-2,3′-bipyridin-6-yl]amino}pyridine-4-carbonitrile hydrochloride] reads less than 5 nM; that for `N#Cc1ccnc(Nc2cc(C3CC3)cc(-c3ccc(N4CCC(=O)CC4)nc3)n2)c1` [Example 4, 2-{[4-cyclopropyl-6′-(4-oxopiperidin-1-yl)-2,3′-bipyridin-6-yl]amino}pyridine-4-carbonitrile hydrochloride], 5 to 50 nM. Regarding `N#Cc1ccnc(Nc2cc(C3CC3)cc(-c3ccc(N4CCNC(=O)C4)nc3)n2)c1` [Example 5, 2-{[4-cyclopropyl-6′-(3-oxopiperazin-1-yl)-2,3′-bipyridin-6-yl]amino}pyridine-4-carbonitrile hydrochloride], the IC50 was 5 to 50 nM. With `N#Cc1ccnc(Nc2cc(C3CC3)cc(-c3ccc(N4CC(O)C4)nc3)n2)c1` [Example 6, 2-{[4-cyclopropyl-6′-(3-hydroxyazetidin-1-yl)-2,3′-bipyridin-6-yl]amino}pyridine-4-carbonitrile hydrochloride], the IC50 was 5 to 50 nM.

Regarding `N#Cc1ccnc(Nc2cc(C3CC3)cc(-c3ccc(N4CCN(CC(N)=O)CC4)nc3)n2)c1` [Example 7, 2-(4-{6-[(4-cyanopyridin-2-yl)amino]-4-cyclopropyl-2,3′-bipyridin-6′-yl}piperazin-1-yl)acetamide hydrochloride], the IC50 lay within 50 to 500 nM. The same measure for `N#Cc1ccnc(Nc2cc(C3CC3)cc(-c3ccc(N4C[C@H](O)CC4=O)nc3)n2)c1` [Example 8, 2-({4-cyclopropyl-6′-[(4R)-4-hydroxy-2-oxopyrrolidin-1-yl]-2,3′-bipyridin-6-yl}amino)pyridine-4-carbonitrile hydrochloride]: 50 to 500 nM; for `CC(=O)N1CCCN(c2ccc(-c3cc(C4CC4)cc(Nc4cc(C#N)ccn4)n3)cn2)CC1` [Example 9, 2-{[6′-(4-acetyl-1,4-diazepan-1-yl)-4-cyclopropyl-2,3′-bipyridin-6-yl]amino}pyridine-4-carbonitrile hydrochloride]: 50 to 500 nM; for `N#Cc1ccnc(Nc2cc(C3CC3)cc(-c3ccc(N4CCCN(C(N)=O)CC4)nc3)n2)c1` [Example 10, 4-{6-[(4-cyanopyridin-2-yl)amino]-4-cyclopropyl-2,3′-bipyridin-6′-yl}-1,4-diazepane-1-carboxamide hydrochloride]: 5 to 50 nM. With `N#Cc1ccnc(Nc2cc(C3CC3)cc(-c3ccc(N4C[C@@H](O)CC4=O)nc3)n2)c1` [Example 11, 2-({4-cyclopropyl-6′-[(4S)-4-hydroxy-2-oxopyrrolidin-1-yl]-2,3′-bipyridin-6-yl}amino)pyridine-4-carbonitrile hydrochloride], the IC50 lay within 50 to 500 nM.

As to `N#Cc1ccnc(Nc2cc(C3CC3)cc(-c3ccc(N[C@H]4CC[C@H](O)CC4)nc3)n2)c1` [Example 12, 2-({4-cyclopropyl-6′-[(trans-4-hydroxycyclohexyl)amino]-2,3′-bipyridin-6-yl}amino)pyridine-4-carbonitrile hydrochloride], the IC50 was 50 to 500 nM. The same measure for `N#Cc1ccnc(Nc2cc(C3CC3)cc(-c3ccc4c(c3)ncn4CCN)n2)c1` [Example 13, 2-({6-[1-(2-aminoethyl)-1H-benzimidazol-5-yl]-4-cyclopropylpyridin-2-yl}amino)pyridine-4-carbonitrile hydrochloride]: 5 to 50 nM; for `N#Cc1ccnc(Nc2cc(C3CC3)cc(-c3ccc4c(c3)ncn4[C@H]3CC[C@H](O)CC3)n2)c1` [Example 14, 2-({4-cyclopropyl-6-[1-(trans-4-hydroxycyclohexyl)-1H-benzimidazol-5-yl]pyridin-2-yl}amino)pyridine-4-carbonitrile hydrochloride]: 5 to 50 nM. The same measure for `Cn1cnc2cc(-c3cc(C4CC4)cc(Nc4cc(C#N)ccn4)n3)ccc21` [Example 15, 2-{[4-cyclopropyl-6-(1-methyl-1H-benzimidazol-5-yl)pyridin-2-yl]amino}pyridine-4-carbonitrile hydrocloride]: 5 to 50 nM; for `N#Cc1ccnc(Nc2cc(C3CC3)cc(-c3ccc4c(c3)ncn4C3CCOCC3)n2)c1` [Example 16, 2-({4-cyclopropyl-6-[1-tetrahydro-2H-pyran-4-yl)-1H-benzimidazol-5-yl]pyridin-2-yl}amino)pyridine-4-carbonitrile hydrochloride]: 5 to 50 nM; for `N#Cc1ccnc(Nc2cc(C3CC3)cc(-c3ccc(C#N)nc3)n2)c1` [Example 17, 6-[(4-cyanopyridin-2-yl)amino]-4-cyclopropyl-2,3′-bipyridine-6′-carbonitrile hydrochloride]: 50 to 500 nM. The result for `N#Cc1ccnc(Nc2cc(C3CC3)cc(-c3ccc(N)nc3)n2)c1` [Example 18, 2-[(6′-amino-4-cyclopropyl-2,3′-bipyridin-6-yl)amino]pyridine-4-carbonitrile hydrochloride] reads 5 to 50 nM. Consider `N#Cc1ccnc(Nc2cc(C3CC3)cc(-c3ccc(NCCN)nc3)n2)c1` [Example 19, 2-({6′-[(2-aminoethyl)amino]-4-cyclopropyl-2,3′-bipyridin-6-yl}amino)pyridine-4-carbonitrile dihydrochloride], for which the IC50 was less than 5 nM. The result for `N#Cc1ccnc(Nc2cc(C3CC3)cc(-c3ccc(N4CCC(O)CC4)nc3)n2)c1` [Example 20, 2-{[4-cyclopropyl-6′-(4-hydroxypiperidin-1-yl)-2,3′-bipyridin-6-yl]amino}pyridine-4-carbonitrile hydrochloride] reads 5 to 50 nM.
